From patent CN116444420A, “β-catenin/BCL9蛋白蛋白相互作用的小分子抑制剂及其应用” (Shanghai Pharmaceutical Industry Research Institute Co ltd, priority 2021, dated 2023)
pIC50: −log10 of the molar value. Where two headings read alike, the source gives them in different places.

Tests used:
[1] = molecular target: T1, hERG potassium channel [hERG钾离子通道] (Homo sapiens, UniProt Q12809); assay: hERG potassium channel, whole-cell patch clamp (Example 73); type: cell-based
T1 construct: expressed in transfected cells; host or cells: HEK293 (stably transfected)

[2] = molecular target: T2, β-catenin/BCL9 protein-protein [β-catenin/BCL9蛋白-蛋白] (Homo sapiens, UniProt P35222); assay: β-catenin/BCL9 protein-protein affinity, fluorescence polarisation (Example 71); type: binding; details: better than compound c
T2 construct: β-catenin(1-781)
T2 sequence (P35222 1-781): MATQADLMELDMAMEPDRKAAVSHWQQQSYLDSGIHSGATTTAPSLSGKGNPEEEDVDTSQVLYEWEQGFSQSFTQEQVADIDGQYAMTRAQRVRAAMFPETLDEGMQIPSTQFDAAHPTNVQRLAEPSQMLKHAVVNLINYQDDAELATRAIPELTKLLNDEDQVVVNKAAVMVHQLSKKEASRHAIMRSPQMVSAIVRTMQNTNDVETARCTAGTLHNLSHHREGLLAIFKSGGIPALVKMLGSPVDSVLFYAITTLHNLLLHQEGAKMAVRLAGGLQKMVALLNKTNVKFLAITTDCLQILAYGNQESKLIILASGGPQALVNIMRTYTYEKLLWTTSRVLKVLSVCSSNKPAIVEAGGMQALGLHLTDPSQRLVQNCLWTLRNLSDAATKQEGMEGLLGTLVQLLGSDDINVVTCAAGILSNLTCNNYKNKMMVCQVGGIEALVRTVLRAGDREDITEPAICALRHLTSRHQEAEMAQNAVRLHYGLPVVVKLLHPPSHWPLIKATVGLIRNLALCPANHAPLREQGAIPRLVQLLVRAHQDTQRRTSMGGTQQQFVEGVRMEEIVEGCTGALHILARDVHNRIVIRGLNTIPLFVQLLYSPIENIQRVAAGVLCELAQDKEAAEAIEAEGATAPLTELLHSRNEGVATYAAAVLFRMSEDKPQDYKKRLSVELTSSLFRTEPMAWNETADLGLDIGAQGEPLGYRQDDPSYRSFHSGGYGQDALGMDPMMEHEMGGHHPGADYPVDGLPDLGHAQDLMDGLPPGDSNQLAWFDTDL

[3] = test system: CT26 colon cancer cells in BALB/c mice [CT26结肠癌细胞]; assay: In vivo experiment 1: CT26 colon cancer mouse model, II-25 and II-27 (Example 76); details: 30mg/kg once daily; for inhibition of tumour growth: after 5 days of dosing
[4] = Liver microsome metabolic stability (Example 75); type: in vitro ADME; details: 0.5 mg/mL liver microsomal protein, 1μM, NADPH, 37℃
CT-26 cells = assay: CCK-8 antiproliferative activity of II-39, CT-26; type: cell-based, human; details: 10μM
[5] = test system: HEK293 human normal cells [HEK293人正常细胞]; details: 10μM
[6] = test system: HCT-116, CT-26, SW480, A549, RKO cells [人结肠癌细胞HCT-116、人结肠癌细胞CT-26、人结肠癌细胞SW480、人肺癌细胞A549、人结肠腺癌细胞RKO]; assay: CCK-8 antiproliferative activity of II-39, cancer cell panel (Example 72, part 2); type: cell-based, human; details: 10μM
[7] = test system: CT26 colon cancer cells in BALB/c mice [CT26结肠癌细胞]; assay: In vivo experiment 2: CT26 colon cancer mouse model, II-39 (Example 76)
[8] = whole-cell patch clamp, HEK293 cells stably transfected, room temperature, read-out: hERG IC50

T1 sequence (Q12809 whole entry): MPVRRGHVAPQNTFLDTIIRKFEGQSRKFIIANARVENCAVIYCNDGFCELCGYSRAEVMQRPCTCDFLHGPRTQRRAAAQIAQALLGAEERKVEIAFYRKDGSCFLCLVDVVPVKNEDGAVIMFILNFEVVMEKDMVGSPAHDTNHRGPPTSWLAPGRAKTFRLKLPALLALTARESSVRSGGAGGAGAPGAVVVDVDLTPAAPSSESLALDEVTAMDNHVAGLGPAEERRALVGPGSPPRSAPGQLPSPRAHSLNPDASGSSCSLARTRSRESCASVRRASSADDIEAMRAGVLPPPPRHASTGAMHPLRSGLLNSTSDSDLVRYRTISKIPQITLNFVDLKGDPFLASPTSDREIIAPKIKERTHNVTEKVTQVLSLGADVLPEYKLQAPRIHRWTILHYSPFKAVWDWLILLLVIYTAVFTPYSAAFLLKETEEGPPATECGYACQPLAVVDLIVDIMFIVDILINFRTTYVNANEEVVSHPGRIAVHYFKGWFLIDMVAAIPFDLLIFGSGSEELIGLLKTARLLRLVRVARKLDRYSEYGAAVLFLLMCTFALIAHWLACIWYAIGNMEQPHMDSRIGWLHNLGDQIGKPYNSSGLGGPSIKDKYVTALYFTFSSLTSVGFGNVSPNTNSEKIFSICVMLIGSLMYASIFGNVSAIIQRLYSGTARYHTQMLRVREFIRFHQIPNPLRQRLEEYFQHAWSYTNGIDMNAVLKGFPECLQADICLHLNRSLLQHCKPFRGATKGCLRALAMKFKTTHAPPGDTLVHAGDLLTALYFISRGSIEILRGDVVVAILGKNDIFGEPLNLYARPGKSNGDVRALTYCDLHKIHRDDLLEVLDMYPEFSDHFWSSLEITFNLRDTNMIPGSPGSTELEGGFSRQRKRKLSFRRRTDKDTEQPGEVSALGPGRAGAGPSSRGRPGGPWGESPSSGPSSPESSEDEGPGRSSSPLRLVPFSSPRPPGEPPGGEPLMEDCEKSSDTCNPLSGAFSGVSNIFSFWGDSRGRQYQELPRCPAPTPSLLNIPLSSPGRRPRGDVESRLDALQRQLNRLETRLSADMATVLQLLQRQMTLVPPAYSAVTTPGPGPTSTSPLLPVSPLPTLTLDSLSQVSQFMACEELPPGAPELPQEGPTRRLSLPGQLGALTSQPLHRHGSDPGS

Row | SMILES | pIC50 [1] | affinity activity compared with reference compound c [2] | tolerability / safety [3] | inhibition of tumour growth [3] | liver microsome metabolic stability ([4]; Table 4) | pIC50 [1, 8] | liver microsome metabolic stability ([4]; Table 5) | antiproliferative activity compared with ICG-001 (CT-26 cells) | effect on normal cells [5] | anti-colon-cancer activity [6] | body weight ([7]; II-39 30mg/kg i.p. once daily) | tolerability / safety ([7]; II-39 30mg/kg i.p. once daily) | tumour inhibition in combination with PD-1 antibody ([7]; II-39 30mg/kg i.p. once daily + PD-1 antibody 10mg/kg i.p. twice a week) | inhibition of colon cancer growth ([7]; II-39 30mg/kg intraperitoneal once daily) | TGI ([7]; combination: II-39 30mg/kg i.p. once daily + PD-1 antibody 10mg/kg i.p. twice a week) [%]
1 | Cc1ccc(-c2cccc(S(=O)(=O)N3CCCC(c4cccc(OC(C)(C)C(=O)N5CCNCC5)c4)C3)c2)cc1C.Cl (stereo not shown) [化合物II-25, 4-(2-(3-(1-((3',4'-二甲基-[1,1'-联苯]-3-基)磺酰基)哌啶-3-基)苯氧基)-2-甲基丙酰基)哌嗪-1-氯化铵] | < 5.00 | 亲和活性更优 | 动物耐受,安全性良好 | 可显著抑制小鼠体内肿瘤的生长 |  |  |  |  |  |  |  |  |  |  | 
2 | Cc1ccc(-c2cccc(S(=O)(=O)N3CCCC(c4cccc(OC(C)(C)C(=O)NS(=O)(=O)c5ccccc5)c4)C3)c2)cc1C (stereo not shown) [化合物II-27, 2-(3-(1-((3',4'-二甲基-[1,1'-联苯基]-3-基)磺酰基)哌啶-3-基)苯氧基)-2-甲基-N-(苯磺酰基))丙酰胺] |  | 亲和活性更优 | 动物耐受,安全性良好 | 可显著抑制小鼠体内肿瘤的生长 | 肝微粒体代谢稳定 | < 5.00 |  |  |  |  |  |  |  |  | 
3 | CC(C)c1ccc(-c2cccc(S(=O)(=O)N3CCCC(c4cccc(OC(C)(C)C(=O)NS(=O)(=O)c5ccccc5)c4)C3)c2)cc1 (stereo not shown) [化合物II-28, 2-(3-(1-((4'-异丙基-[1,1'-联苯基]-3-基)磺酰基)哌啶-3-基)苯氧基)-2-甲基-N-(苯磺酰基)丙酰胺] |  | 亲和活性更优 |  |  | 肝微粒体代谢稳定 | < 5.00 |  |  |  |  |  |  |  |  | 
4 | CC(C)c1ccc(-c2cccc(S(=O)(=O)N3CCCC(c4cccc(OC(C)(C)C(=O)NS(=O)(=O)c5ccc(C(F)(F)F)cc5)c4)C3)c2)cc1 (stereo not shown) [化合物II-39, 2-(3-(1-((4'-异丙基-[1,1'-联苯]-3-基)磺酰基)哌啶-3-基(苯氧基)-2-甲基-N-((4-(三氟甲基)苯基)磺酰)丙酰胺] |  |  |  |  |  | < 5.00 | 肝微粒体代谢稳定 | 显著的优于阳性对照药ICG-001 | 没有影响 | 表现出较好的抗结肠癌活性 | 未观察到小鼠体重有明显减轻 | 动物耐受,安全性良好 | 肿瘤得到进一步的抑制 | 可以很好的抑制结肠癌的生长 | 81.1
